Patent US20260258039A1, “AROMATIC COMPOUND, METHOD FOR PREPARING SAME, AND USE THEREOF IN PREPARATION OF ESTROGEN RECEPTOR DEGRADER” (Hinova Pharmaceuticals Inc., priority 2022, published 2026)
Like-named read-outs stand apart in the source and are kept apart here.

Key:
ER [1] = target: T1, ER (Homo sapiens, UniProt P03372); assay: Degradation activities on ER (ELISA) in T47D breast cancer cells; format: cell-based; conditions: T47D cells, 24 h, ELISA; for DC50: concentration required to degrade 50% of the target protein; for Dmax: maximum percentage of target protein degraded
T1 construct: T47D breast cancer cells were subcultured in cell culture medium; endogenous in cells; host or cells: T47D breast cancer cells
T1 sequence (P03372 1-595): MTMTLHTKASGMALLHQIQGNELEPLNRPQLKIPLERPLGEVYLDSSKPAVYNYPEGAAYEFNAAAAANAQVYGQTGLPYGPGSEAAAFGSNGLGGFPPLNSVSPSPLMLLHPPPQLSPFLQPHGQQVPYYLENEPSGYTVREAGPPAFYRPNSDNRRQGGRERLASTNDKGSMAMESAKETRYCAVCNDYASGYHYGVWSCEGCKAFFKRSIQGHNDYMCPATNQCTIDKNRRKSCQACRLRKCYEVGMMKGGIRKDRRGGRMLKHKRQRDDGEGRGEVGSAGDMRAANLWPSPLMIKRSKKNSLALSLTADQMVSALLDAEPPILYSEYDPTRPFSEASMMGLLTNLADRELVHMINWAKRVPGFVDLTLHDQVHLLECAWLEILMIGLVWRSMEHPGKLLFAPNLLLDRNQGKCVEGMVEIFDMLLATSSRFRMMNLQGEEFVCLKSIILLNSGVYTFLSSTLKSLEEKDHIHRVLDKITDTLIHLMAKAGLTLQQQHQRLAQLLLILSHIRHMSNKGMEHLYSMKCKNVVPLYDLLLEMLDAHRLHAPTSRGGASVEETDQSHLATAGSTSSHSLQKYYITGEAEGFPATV
Summary of the method: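 Cellular ER degradation ELISA: compound dosed 24 h on T47D cells (2.5×10^4/well, pre-grown 3 days) at six final levels from 100 nM downward. Remaining ER was detected by HRP-TMB absorbance at 450 nm. Dose-response fitting gave DC50 and Dmax, the maximal percentage degraded.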

ER [2] = target: T1, ER; assay: Degradation activities on ER (Western blotting) in T47D breast cancer cells; format: cell-based; conditions: Western blot; for Percentage reduction of ER: 24 h
Description: T47D breast cancer cells were subcultured in cell culture medium, and the cells in good growth condition were seeded into 6-well plate at 2 mL/well, with 2.5×10^5 cells per well. The cells were incubated overnight in a 37° C. incubator under 5% CO2. The drug was prepared into 10 mM stock solution with dimethyl sulfoxide (DMSO). Prior to use, the stock solution was diluted with DMSO in a ratio of 1:3. […] of the diluted compound was added to the cell culture wells (to ensure a DMSO concentration of 0.1% in the culture system), and each concentration was repeated twice. The plate were gently shaken to mix. Additionally, the negative control wells (containing equal amount of DMSO) and the positive control wells were set up. After 24 hours of culture, the cells were lysed with RIPA cell lysis buffer to extract proteins, and the protein concentration was measured using a BCA kit. The protein loading buffer (5×) was added, and the plate was heated at 100° C. for 5 min. Then, the sample was stored at −20° C. […] of protein collected from each well was loaded onto a polyacrylamide gel for electrophoresis. The protein is transferred from the polyacrylamide gel to a PVDF membrane, blocked with 5% skim milk at room temperature for 1 h, and incubated overnight at 4° C. with primary antibodies Anti-ERα rabbit mAb (CST, Cat #: 8644S) and Anti-GAPDH rabbit mAb (CST, Cat #: 2118L). The membrane was washed three times with TBST solution, with 10 min for each time. The secondary antibody (horseradish peroxidase-labeled goat anti-rabbit IgG) was incubated at room temperature for 2 h, and then the membrane was washed three times with TBST solution, with 10 min for each time. Finally, ECL chromogenic solution was added for color development, and an automatic chemiluminescence instrument was used to take pictures. Images were collected and analyzed.
The degradation activities of the compounds according to the present invention towards ER, as tested by western blotting, are presented in Table 2

[3] = test system: MCF-7 breast cancer cells; assay: Inhibition of proliferation of MCF-7 breast cancer cells (agarose culture, CellTiter-Glo 3D); format: cell-based; conditions: MCF-7 cells, 15 days of cultivation, read-out: IC50
[4] = Pharmacokinetics in female ICR mice; conditions: plasma; for AUCinf (μg*h/mL) / T1/2 (h) / AUC(0-inf): oral administration 3 mg/kg, female ICR mice; for half-life / AUC(0-inf): female, ICR, mouse, po; for AUC(0-inf): AUCinf (μg*h/mL)
Description: Pharmacokinetic experimental steps: A suitable amount of compound to be administered was weighed, and after the final volume required was calculated, a drug solution with corresponding concentration was prepared using the medium (DMSO/HS-15/Tween 80/D5W (5:5:2:88, v/v/v/v)). For intravenous administration, each drug was administered to 9 animals (female ICR mice, provided by Chengdu Dossy Experimental Animal Co., Ltd.) at a dose of 1 mg/kg (drug volume of 10 mL/kg, drug concentration of 0.1 mg/mL). After administration, samples were alternately collected from three animals of each group at time points of 5 min, 15 min, 30 min, 1 h, 2 h, 4 h, 8 h, 12 h, and 24 h. For oral gavage, each drug was administered to 9 animals (female ICR mice) at a dose of 3 mg/kg (drug volume of 10 mL/kg, drug concentration of 0.3 mg/mL). After administration, samples are alternately collected from three animals of each group at time points of 15 min, 30 min, 1 h, 2 h, 4 h, 6 h, 8 h, 12 h, and 24 h. The samples were anticoagulated with EDTA-K2 and centrifuged at 4° C. for 5 min to separate the plasma. The plasma samples were vortexed and mixed. A suitable amount of internal standard working solution was added to the 96-well plate containing samples used for plotting standard curve, samples used for quality control, or samples to be tested; A suitable amount of methanol was added to the blank sample, vortexed and mixed thoroughly, and then centrifuged for 15 min before the supernatant was collected and injected to LC-MS/MS for analysis. The plasma concentration at each time point was used to calculate the main pharmacokinetic parameters using the Winnolin 8.3 non-compartmental model.

| Compound | DC50 (ER [1]) | Percentage reduction of ER (ER [2]; compound concentration 1 nM) | Dmax (ER [1]; read-out: Dmax) | Percentage reduction of ER (ER [2]; compound concentration 10 nM) | IC50 ([3]; Homo sapiens, MCF7, 360 h) | other results |
| --- | --- | --- | --- | --- | --- | --- |
| O=C1CCC(N2Cc3cc(N4CC5(CCN(CC6CCN(c7c(F)cc([C@@H]8c9ccc(O)cc9OC[C@@H]8c8c(F)cccc8F)cc7F)CC6)CC5)C4)ccc3C2=O)C(=O)N1 (stereo partly drawn) [Example 37] | < 10 nM | – | 50 to 75% | – | – | half-life ([4]; 3 mg/kg): > 3.5 h; AUC(0-inf) ([4]; 3 mg/kg): > 2500 ng·h/mL |
| O=C1CCC(N2Cc3cc(N4CC5(CCN(CC6CCN(c7ccc([C@@H]8c9ccc(O)cc9OC[C@@H]8c8c(F)cccc8F)cc7F)CC6)CC5)C4)ccc3C2=O)C(=O)N1 (stereo partly drawn) [Example 65, 3-(5-(7-((1-(4-(3-(2,6-difluorophenyl)-7-hydroxyl-chroman-4-yl)-2-fluorophenyl)piperidin-4-yl)methyl)-2,7-diazaspiro[3.5]nonane-2-yl)-1-oxoisoinodolin-2-yl)piperidin-2,6-dione] | < 10 nM | – | 50 to 75% | – | 11 to 50 nM | half-life ([4]; 3 mg/kg): > 3.5 h; AUC(0-inf) ([4]; 3 mg/kg): > 2500 ng·h/mL |
| O=C1CCC(N2Cc3cc(N4CC5(CCN(CC6CCN(c7ccc([C@@H]8c9ccc(O)cc9OC[C@@H]8c8c(F)cccc8F)cc7F)CC6)CC5)C4)ccc3C2=O)C(=O)N1 (stereo partly drawn) [Example 70, 3-(5-(7-((1-(4-((3S,4R)-3-(2,6-difluorophenyl)-7-hydroxychroman-4-yl)-2-fluorophenyl)piperidin-4-yl)methyl)-2,7-diazaspiro[3.5]nonane-2-yl)-1-oxoisoinodolin-2-yl)piperidin-2,6-dione] | < 10 nM | – | – | – | – | Dmax (ER [1]): B (B: 75-50%); IC50 [3]: < 10 nM; AUCinf (μg*h/mL) [4]: A (A: > 2.5 μg*h/mL); T1/2 (h) [4]: A (A: >3.5 h) |
| O=C1CCC(N2Cc3cc(N4CC5(CCN(CC6CCN(c7ccc([C@@H]8c9ccc(O)cc9OC[C@@H]8c8c(F)cccc8F)cc7)CC6)CC5)C4)ccc3C2=O)C(=O)N1 (stereo partly drawn) [Example 73, 3-(5-(7-((1-(4-((3S,4R)-3-(2,6-difluorophenyl)-7-hydroxychroman-4-yl)phenyl)piperidin-4-yl)methyl)-2,7-diazaspiro[3.5]nonane-2-yl)-1-oxoisoindol-2-yl)piperidin-2,6-dione] | – | – | – | – | – | Dmax (ER [1]): B (B: 75-50%); IC50 [3]: < 10 nM; T1/2 (h) [4]: A (A: >3.5 h); AUCinf (μg*h/mL) ([4]; 3 mg/kg): B (B: 1.4-2.5 μg*h/mL) |
| O=C1CCC(N2Cc3cc(N4CC5(CCN(CC6CCN(c7ccc([C@@H]8c9ccc(O)cc9OC[C@@H]8c8ccccc8)cc7)CC6)CC5)C4)ccc3C2=O)C(=O)N1 (stereo partly drawn) [Example 79, 3-(5-(7-((1-(4-((3S,4R)-7-hydroxyl-3-phenylchroman-4-yl)phenyl)piperidin-4-yl)methyl)-2,7-diazaspiro[3.5]nonane-2-yl)-1-oxoisoinodolin-2-yl)piperidin-2,6-dione] | < 10 nM | 70% | 50 to 75% | – | < 10 nM | – |
| O=C1CCC(N2C(=O)c3ccc(N4CC5(CCN(CC6CCN(c7ccc([C@@H]8c9ccc(O)cc9OC[C@@H]8c8ccccc8)cc7)CC6)CC5)C4)cc3C2=O)C(=O)N1 (stereo partly drawn) [Example 81, 2-(2,6-dioxopiperidin-3-yl)-5-(7-((1-(4-((3S,4R)-7-hydroxyl-3-phenylchroman-4-yl)phenyl)piperidin-4-yl)methyl)-2,7-diazaspiro[3.5]nonane-2-yl)isoinodolin-1,3-dione] | 10 to 50 nM | – | 50 to 75% | 82% | 11 to 50 nM | ER degradation activity (in words) (ER [2]): good ER degradation activity |
| O=C1CCC(N2Cc3cc(N4CC5CN(CC6CCN(c7ccc([C@@H]8c9ccc(O)cc9OC[C@@H]8c8ccccc8)cc7)CC6)CC5C4)ccc3C2=O)C(=O)N1 (stereo partly drawn) [Example 83, 3-(5-(5-((1-(4-((3S, 4R)-7-hydroxyl-3-phenylchroman-4-yl)phenyl)piperidin-4-yl)methyl)hexahydropyrrolo[3,4-c]pyrrole-2(1H)-yl)-1-oxoisoinodolin-2-yl)piperidin-2,6-dione] | – | 87% | – | – | < 10 nM | – |
| O=C1CCC(N2Cc3cc(N4CC5(CCN(CC6CCN(c7ccc([C@@H]8c9ccc(O)cc9OC[C@@H]8c8ccccc8)cc7F)CC6)CC5)C4)ccc3C2=O)C(=O)N1 (stereo partly drawn) [Example 88, 3-(5-(7-((1-(2-fluoro-4-(cis-7-hydroxyl-3-phenylchroman-4-yl)phenyl)piperidin-4-yl)methyl)-2,7-diazaspiro[3.5]nonane-2-yl)-1-oxoisoinodolin-2-yl)piperidin-2,6-dione] | < 10 nM | – | 50 to 75% | 47% | < 10 nM | – |

More lines, main results first:

| DC50 (ER [1]) | Percentage reduction of ER (ER [2]; compound concentration 1 nM) | Dmax (ER [1]; read-out: Dmax) | Percentage reduction of ER (ER [2]; compound concentration 10 nM) | IC50 ([3]; Homo sapiens, MCF7, 360 h) | Compound | other results |
| --- | --- | --- | --- | --- | --- | --- |
| < 10 nM | 53% | – | – | – | 3-(5-(7-((1-(2,6-difluoro-4-((3,4-cis)-3-(2-fluorophenyl)-7-hydroxychroman-4-yl)phenyl)piperidin-4-yl)methyl)-2,7-diazaspiro[3.5]nonane-2-yl)-1-oxoisoinodolin-2-yl)piperidin-2,6-dione [Example 33] | Dmax (ER [1]): B (B: 75-50%); IC50 [3]: < 10 nM |
| < 10 nM | – | 50 to 75% | 84% | < 10 nM | O=C1CCC(N2Cc3cc(N4CCC(CN5CC6(CCN(c7ccc([C@@H]8c9ccc(O)cc9CC[C@@H]8c8ccccc8)cc7)CC6)C5)CC4)ccc3C2=O)C(=O)N1 (stereo partly drawn) [Example 11] | – |
| < 10 nM | 56% | 50 to 75% | – | < 10 nM | O=C1CCC(N2Cc3cc(N4CC5CN(CC6CCN(c7ccc([C@@H]8c9ccc(O)cc9CC[C@@H]8c8ccccc8)cc7)CC6)CC5C4)ccc3C2=O)C(=O)N1 (stereo partly drawn) [Example 26, 3-(5-(5-((1-(4-((1R,2S)-6-hydroxyl-2-phenyl-1,2,3,4-tetrahydronaphthalen-1-yl)phenyl)piperidin-4-yl)methyl)hexahydropyrrolo[3,4-c]pyrrole-2(1H)-yl)-1-oxoisoinodolin-2-yl)piperidin-2,6-dione] | – |
| < 10 nM | 62% | 50 to 75% | – | < 10 nM | O=C1CCC(N2Cc3cc(N4CC5(CCN(CC6CCN(c7ccc([C@@H]8c9ccc(O)cc9OC[C@@H]8c8ccccc8F)cc7)CC6)CC5)C4)ccc3C2=O)C(=O)N1 (stereo partly drawn) [Example 30] | AUCinf (μg*h/mL) [4]: B (B: 1.4-2.5 μg*h/mL); T1/2 (h) [4]: A (A: >3.5 h) |
| < 10 nM | – | 50 to 75% | 81% | < 10 nM | O=C1CCC(N2Cc3cc(N4CC5(CCN(CC6CCN(c7c(F)cc([C@@H]8c9ccc(O)cc9OC[C@@H]8c8ccccc8F)cc7F)CC6)CC5)C4)ccc3C2=O)C(=O)N1 (stereo partly drawn) [Example 32, 3-(5-(7-((1-(2,6-difluoro-4-((3,4-cis)-3-(2-fluorophenyl)-7-hydroxybenzodihydropyran-4-yl)phenyl)piperidin-4-yl)methyl)-2,7-diazaspiro[3.5]nonane-2-yl)-1-oxoisoinodolin-2-yl)piperidin-2,6-dione] | half-life ([4]; 3 mg/kg): > 3.5 h; AUC(0-inf) ([4]; 3 mg/kg): 1400 to 2500 ng·h/mL |
